# Laboratory results as given in patent US5235061A, “Fungicidal (1H-1,2,4-triazolyl)disilaalkanes” (priority 1991, dated 1993).
# “And” between values parts separate entries of the source, which are not always exact repeats. Identical values can stand only once.
# Key:
# Experiment in all cases: In vitro percent disease control (radii of spore growth on agar)
# Format in all cases: cell-based
# Physalospora baccae = details: for inhibition of growth at 50 ppm / inhibition of growth at 100 ppm: read-out: % controlled, Phy ba.
# Experimental: (§1) The compounds of this invention were dissolved respectively in acetone in an amount equal to 10% of the final volume and then in purified water at the concentration of 100 ppm and 50 ppm.
# (§2) Each of the solution was mixed with potato-sucrose-agar medium in a 6" petri dish and one of the fungi was spotted at the center of the dish. The dish was incubated in growth room for several days. The percent disease control was derived from the radii of spore growth. The screening tests in vitro condition are well-known to those skilled in the art.
# (§3) The following fungi were used for the screening.
# 3) Phy. ba.; Physalospora baccae
# Botry tris cinerea = details: for inhibition of growth at 50 ppm / inhibition of growth at 100 ppm: read-out: % controlled, Bo ci.
# Experimental: as §1, §2, §3
# 10) Bo.ci.; Botry tris cinerea
# [1] = tested on: Botryosphaeria dothidea Macrophoma sp.; details: for inhibition of growth at 50 ppm / inhibition of growth at 100 ppm: Botryosphaeria dothidea, read-out: % controlled, Bo.do (Ma.)
# Experimental: as §1, §2, §3
# 4) Bo.do(Ma); Botryosphaeria dothidea Macrophoma sp.
# Rhizopus sp. = details: for inhibition of growth at 50 ppm / inhibition of growth at 100 ppm: Rhizopus, read-out: % controlled, Rhi. sp.
# Experimental: as §1, §2, §3
# Alternaria mali = details: for inhibition of growth at 50 ppm / inhibition of growth at 100 ppm: Alternaria mali, read-out: % controlled, Al.
# Experimental: as §1, §2, §3
# Pyricalaria oryzae = details: for inhibition of growth at 50 ppm: read-out: % controlled, Py. or., 50 ppm; for inhibition of growth at 100 ppm: read-out: % controlled, Py. or., 100 ppm
# Experimental: as §1, §2, §3
# 6) Py.or.; Pyricalaria oryzae
# Phytophthora capsisi = details: Phytophthora, read-out: % controlled, Phy ca.
# Experimental: as §1, §2, §3
# 2) Phy. ca.; Phytophthora capsisi
# Rhizoctonia solani = details: for inhibition of growth at 50 ppm / inhibition of growth at 100 ppm: Rhizoctonia solani, read-out: % controlled, Rhy. so.
# Experimental: as §1, §2, §3
# 7) Rhi.so.; Rhizoctonia solani
# Glomerella cingulata = details: for inhibition of growth at 50 ppm / inhibition of growth at 100 ppm: Colletotrichum gloeosporioides, read-out: % controlled, Glo.
# Experimental: as §1, §2, §3
# 5) Glo.; Glomerella cingulata
# Fusarium moniliforme = tested on: Fusarium moniliforme
# Experimental: as §1, §2, §3
# 8) Fu.mo.; Fusarium moniliforme
Compound,inhibition of growth at 50 ppm (Physalospora baccae; 50 ppm),inhibition of growth at 100 ppm (Physalospora baccae; 100 ppm),inhibition of growth at 50 ppm (Botry tris cinerea; 50 ppm),inhibition of growth at 100 ppm (Botry tris cinerea; 100 ppm),inhibition of growth at 50 ppm ([1]; 50 ppm),inhibition of growth at 100 ppm ([1]; 100 ppm),inhibition of growth at 50 ppm (Rhizopus sp.; 50 ppm),inhibition of growth at 100 ppm (Rhizopus sp.; 100 ppm),inhibition of growth at 50 ppm (Alternaria mali; 50 ppm),inhibition of growth at 100 ppm (Alternaria mali; 100 ppm),inhibition of growth at 50 ppm (Pyricalaria oryzae),inhibition of growth at 100 ppm (Pyricalaria oryzae),inhibition of growth at 50 ppm (Phytophthora capsisi),inhibition of growth at 100 ppm (Phytophthora capsisi),inhibition of growth at 50 ppm (Rhizoctonia solani; 50 ppm),inhibition of growth at 100 ppm (Rhizoctonia solani; 100 ppm),inhibition of growth at 50 ppm (Glomerella cingulata; 50 ppm),inhibition of growth at 100 ppm (Glomerella cingulata; 100 ppm),"% controlled, Fu. mo. (Fusarium moniliforme; 50 ppm)","% controlled, Fu. mo. (Fusarium moniliforme; 100 ppm)",other results
"C=CC[Si](CC=C)(Cn1cncn1)C[Si](CC=C)(c1ccc(F)cc1)c1ccc(-c2ccccc2)cc1 (stereo not drawn) [6-(4-fluorophenyl)-6-(4-phenylphenyl)-4-(2-propenyl)-4,6-disila-4-(1H-1,2,4-triazol-1-ylmethyl)-1,8-nonadiene]",100%,100%,100%,100%,100%,100%,100%,100%,100%,100%,100%,100%,40%,50%,100%,100%,100%,100%,,,
"C=CC[Si](Cn1cncn1)(C[Si](CC=C)(c1ccc(F)cc1)c1ccc(-c2ccccc2)cc1)c1ccc(F)cc1 (stereo not drawn) [4,6-(4-fluorophenyl)-6-(4-phenylphenyl)-4,6-disila-4-(1H-1,2,4-triazol-1-ylmethyl)-1,8-nonadiene]",60%,65%,,,79%,79%,56%,56%,62%,65%,100%,100%,75%,75%,90%,96%,85%,87%,40%,46%,
"C=CC[Si](CC=C)(Cn1cncn1)C[Si](CC=C)(CC=C)c1ccccc1 [6-phenyl-4,6-bis(2-propenyl)-4,6-disila-4-(1H-1,2,4-triazol-1-ylmethyl)-1,8-nonadiene]",60%,69%,80%,96%,65%,70%,50%,50%,75%,79%,60%,90%,60%,70%,,,70%,87%,46%,46%,
"C=CC[Si](Cn1cncn1)(C[Si](CC=C)(c1ccccc1)c1ccc(-c2ccccc2)cc1)c1ccc(F)cc1 (stereo not drawn) [4-(4-fluorophenyl)-6-phenyl-6-(4-phenylphenyl)-4,6-disila-4-(1H-1,2,4-triazol-1-ylmethyl)-1,8-nonadiene]",65%,69%,90%,90%,,,50%,58%,72%,78%,100%,100%,70%,72%,60%,90%,80%,86%,61%,65%,
"C=CC[Si](C)(Cn1cncn1)C[Si](CC=C)(c1ccc(OCC)cc1)c1ccc(OCC)cc1 (stereo not drawn) [6,6-bis(4-ethoxyphenyl)-4-methyl-4,6-disila-4-(1H-1,2,4-triazol-1-ylmethyl)-1,8-nonadiene]",,,100%,100%,70%,72%,80%,80%,100%,100%,100%,100%,55%,60%,100%,100%,100%,100%,100%,100%,
"2-(4-chlorophenyl)-2-(4-fluorophenyl)-2,4-dimethyl-1-(1H-1,2,4-triazol-1-yl)pentane",,,,,,,,,,,,,,,,,,,46%,46%,"% controlled, Phy ba. (Physalospora baccae; 50 ppm): 69%; % controlled, Phy ba. (Physalospora baccae; 100 ppm): 69%; % controlled, Bo ci. (Botry tris cinerea; 50 ppm): 90%; % controlled, Bo ci. (Botry tris cinerea; 100 ppm): 90%; % controlled, Bo.do (Ma.) ([1]; 50 ppm): 79%; % controlled, Bo.do (Ma.) ([1]; 100 ppm): 79%; % controlled, Rhi. sp. (Rhizopus sp.; 50 ppm): 50%; % controlled, Rhi. sp. (Rhizopus sp.; 100 ppm): 50%; % controlled, Al. (Alternaria mali; 50 ppm): 75%; % controlled, Al. (Alternaria mali; 100 ppm): 79%; % controlled, Py. or. (Pyricalaria oryzae; 50 ppm): 100%; % controlled, Py. or. (Pyricalaria oryzae; 100 ppm): 100%; % controlled, Rhy. so. (Rhizoctonia solani; 50 ppm): 96%; % controlled, Rhy. so. (Rhizoctonia solani; 100 ppm): 96%; % controlled, Glo. (Glomerella cingulata; 50 ppm): 87%; % controlled, Glo. (Glomerella cingulata; 100 ppm): 87%"
"C[Si](C)(C[Si](C)(Cn1cncn1)c1ccc(F)cc1)c1ccc(-c2ccccc2)cc1 (stereo not drawn) [2-(4-fluorophenyl)-4-(4-phenylphenyl)2,4-dimethyl-2,4-disila-1-(1H-1,2,4-triazol-1-yl)pentane]",69%,69%,90%,90%,79%,79%,50%,50%,75%,79%,100%,100%,,,96%,96%,87%,87%,46%,46%,
"C[Si](C)(C[Si](Cn1cncn1)(c1ccc(F)cc1)c1ccc(-c2ccccc2)cc1)c1ccc(F)cc1 (stereo not drawn) [2,4-bis(4-fluorophenyl)-2-(4-phenylphenyl)-4-methyl-2,4-disila-1-(1H-1,2,4-triazol-1-yl)pentane]",,,,,,,,,,,,,12%,14%,,,87%,87%,46% and 41%,46% and 45%,"% controlled, Bo ci. (Botry tris cinerea; 100 ppm): 90% and 47%; % controlled, Bo.do (Ma.) ([1]; 50 ppm): 79% and 43%; % controlled, Bo.do (Ma.) ([1]; 100 ppm): 79% and 51%; % controlled, Al. (Alternaria mali; 50 ppm): 75% and 38%; % controlled, Al. (Alternaria mali; 100 ppm): 79% and 46%; % controlled, Py. or. (Pyricalaria oryzae; 50 ppm): 100% and 50%; % controlled, Py. or. (Pyricalaria oryzae; 100 ppm): 100% and 50%; % controlled, Glo. (Glomerella cingulata; 50 ppm): 76%; % controlled, Glo. (Glomerella cingulata; 100 ppm): 78%"
C=CC[Si](C[Si](C)(Cn1cncn1)c1ccc(F)cc1)(c1ccccc1)c1ccc(-c2ccccc2)cc1 (stereo not drawn),100%,100%,86%,100%,100%,100%,100%,100%,78%,100%,85%,100%,27%,50%,,,100%,100%,100%,100%,
"C[Si](C)(C)C[Si](Cn1cncn1)(c1ccc(F)cc1)c1ccc(F)cc1 [2,2-bis(4-fluorophenyl)-4,4-dimethyl-2,4-disila-1-(1H-1,2,4-triazol-1-yl)pentane]",20%,24%,,,31%,37%,24%,29%,32%,35%,57%,61%,6%,6%,60%,67%,60%,67%,31%,34%,
